# Measurements published in patent publication US8143238B2, “Methods of increasing epidermal skin thickness by topical administration of a 19-nor containing vitamin D compound” (Wisconsin Alumni Research Foundation, priority 2008, dated 2012).
# Experiments:
# Rhino mice = assay: Epidermal thickness of Rhino mice after 3 weeks of daily topical administration (histological analysis); type: in vivo, mouse; settings: for API-Treated Epidermal Thickness (% Vehicle): 70% ethanol/30% propylene glycol, mean ± SEM
# Experimental: Methods. Animals and dose administration. Rhino mice 6-8 weeks old were dosed daily via the topical route. The mice were weighed three times per week. Doses of API were adjusted weekly based on body weight. The topical formulations dosage forms were made by mixing the API with two different topical carriers. One topical carrier consisted of 70 vol % propylene glycol and 30 vol % ethanol. The other topical carrier consisted of 30 vol % propylene glycol and 70 vol % ethanol. The topical vehicle control for a given comparative example was the vehicle carrier used in the API-formulated topical dosage form. Animals were euthanized 72 hours after administration of the final topical dose, and dorsal skin was collected for histological analysis.
# Measurement of epidermal thickness.
# Epidermal thickness was determined by histological analysis of tissue sections. Skin was fixed overnight in 4% paraformaldehyde at 4° C. with gentle agitation. The skin was dehydrated the following day in 100% methanol. Samples were embedded in paraffin. Nine sections, each measuring 10 μm and each separated by 150 μm, were taken from each mouse and stained with hematoxylin and eosin stain. Five of the nine sections were digitally imaged (6× magnification) for analysis of the epidermal thickness using Metamorph Imaging Software (single line function).
# The thickness of the epidermis adjacent to each comedone (open or healed) on each respective image of the five sections was also then measured using a Wacom Intuos 3 Graphics Tablet interfaced with the software. The average width was determined for each Rhino mouse from multiple measurements. Individual epidermal thickness average was determined from a composite of measurements taken from all 5 images. Such average for each mouse was used to calculate the treatment group mean. Results in the figures are expressed in terms of mean±standard error of the mean.
# Preparation of topical formulations and dosage forms containing the various API's including 2MBis P, CAGE-3, 24R-2MD2, VitIII (17-20E), NEL, VD-03, 2MPregna, 2MP, 20R-2MBisP, 2MTrisP, FF-44, FF-55, HPBS and 13Me2. Separate concentrated ethanolic stock solutions of each API were diluted to a predetermined dose concentration using a topical carrier vehicle. Two different carrier vehicles were used. One topical carrier consisted of 70 vol % propylene glycol and 30 vol % ethanol. The other topical carrier consisted of 30 vol % propylene glycol and 70 vol % ethanol. The vehicle was thoroughly mixed with the API. The topical dosing formulation and dosage form delivered a predetermined amount of API on a per kilogram body weight basis.
# A 100 μL dose was administered to the back of the mouse. An average weight of 24-30 g/mouse was assumed initially in the dose volume calculations. Dosing volumes were adjusted weekly to deliver the predetermined desired dose amount of API based on the body weight of each animal.
# keratinocytes in culture = settings: cited from earlier work
# hairless C3H mouse = settings: topical administration to skin of hairless C3H mouse; cited from earlier work
# [1] = 217 nmole/kgBW/day topical, 3 weeks, 70 vol. % ethanol/30 vol. % propylene glycol
# [2] = 694 nmole/kgBW/day topical, 3 weeks, 70 vol. % ethanol/30 vol. % propylene glycol
# [3] = topical API dose 217 nmol/kg daily, 3 weeks
# [4] = topical API dose 694 nmol/kg daily, 3 weeks
compound,measurement,setting,value
"C=C1[C@H](O)CC(=C/C=C2\CCC[C@]3(C)/C(=C(\C)CCCC(C)(C)O)CC[C@@H]23)C[C@H]1O [Vit-III 17-20E, 2-methylene-1α,25-dihydroxy-(17E)-17(20)-dehydro-19-nor-vitamin D3]",epidermal thickness as compared to the vehicle control (in words),"Rhino mice; 24.1 nmole/kgBW/day topical, 3 weeks, 70 vol. % ethanol/30 vol. % propylene glycol",significant increase in epidermal thickness
same,API-Treated Epidermal Thickness (% Vehicle),"Rhino mice; topical API dose 24 nmol/kg daily, 3 weeks",216 ± 13 % Vehicle
"C=C1[C@H](O)CC(=C/C=C2\CCC[C@@H]3[C@@H]([C@@H](C)CCCC(C)(C)O)CC[C@@H]23)C[C@H]1O [VD-03, 2-methylene-18,19-dinor-(20S)-1α,25-dihydroxyvitamin D3]",API-Treated Epidermal Thickness (% Vehicle),"Rhino mice; topical API dose 0.62 nmol/kg daily, 3 weeks",225 ± 6 % Vehicle
"C=C1/C(=C\C=C2/CCC[C@]3(C)[C@@H]([C@H](C)CCCC(C)(C)O)CC[C@@H]23)C[C@@H](O)C[C@@H]1O [1,25(OH)2D3, 1α,25-dihydroxy-vitamin D3]",epidermal thickness as compared to the vehicle-only control (in words),"Rhino mice; 6 nmole/kgBW daily topical, 3 weeks, 70 vol. % ethanol/30 vol. % propylene glycol",very modest increase in epidermal thickness
same,API-Treated Epidermal Thickness (% Vehicle),"Rhino mice; topical API dose 6.0 nmol/kg daily, 3 weeks",118 ± 7 % Vehicle
same,proliferation of keratinocytes,keratinocytes in culture,inhibit the proliferation
same,epidermal proliferation,hairless C3H mouse,induce epidermal proliferation
same,epidermal thickness,hairless C3H mouse,increase epidermal thickness
"C=C1[C@H](O)CC(=C/C=C2\CCC[C@]3(C)[C@@H]([C@@H](C)CC)CC[C@@H]23)C[C@H]1O [2MBisP, 2-methylene-19-nor-20(S)-1α-hydroxy-bishomopregnacalciferol]",epidermal thickness as compared to the vehicle control (in words),Rhino mice; [1],significant increase in epidermal thickness
same,epidermal thickness as compared to the vehicle control (in words),Rhino mice; [2],significant increase in epidermal thickness
same,potency at increasing epidermal thickness relative to 20R-2MBisP,"Rhino mice; doses of 217 and 694 nmole/kgBW/day topical, 3 weeks",approximately one-half log more potent
same,API-Treated Epidermal Thickness (% Vehicle),Rhino mice; [3],220 ± 8 % Vehicle
same,API-Treated Epidermal Thickness (% Vehicle),Rhino mice; [4],231 ± 6 % Vehicle
"C=C1[C@H](O)CC(=C/C=C/CC(C)(C)C[C@@H](C)CCCC(C)(C)O)C[C@H]1O [13Me2, 13,13-dimethyl-des-C,D analog of (20S)-2-methylene-1α,25-dihydroxy-19-nor-vitamin D3]",epidermal thickness as compared to the vehicle control (in words),Rhino mice; [1],significant increase in epidermal thickness
same,API-Treated Epidermal Thickness (% Vehicle),Rhino mice; [3],229 ± 12 % Vehicle
"C=C1[C@H](O)CC(=C/C=C2\CCC[C@]3(C)[C@@H]([C@@H](C)CCCC4(O)CCCC4)CC[C@@H]23)C[C@H]1O [CAGE-3, 19-nor-26,27-dimethylene-20(S)-2-methylene-1α,25-dihydroxyvitamin D3]",epidermal thickness as compared to the vehicle control (in words),"Rhino mice; 0.9 ng/day (ca. 100 picomole/kgBW/day), 0.45 ng/day from day 10, 0.22 ng/day (25 picomole/kgBW/day) from day 19, vehicle 30 vol. % ethanol/70 vol. % propylene glycol",increase in epidermal thickness
same,epidermal thickness compared to the vehicle control (in words),"Rhino mice; lowest dose 0.0079 nmol/kgBW daily topical, 3 weeks, 70 vol. % ethanol/30 vol. % propylene glycol",some increase in epidermal thickness
same,epidermal thickness as compared to the control vehicle (in words),"Rhino mice; three higher doses 0.025, 0.079 and 0.25 nmol/kgBW daily topical, 3 weeks, 70 vol. % ethanol/30 vol. % propylene glycol",significant increase in epidermal thickness
same,API-Treated Epidermal Thickness (% Vehicle),"Rhino mice; topical API dose 0.025 nmol/kg daily, 3 weeks",162 ± 11 % Vehicle
same,API-Treated Epidermal Thickness (% Vehicle),"Rhino mice; topical API dose 0.079 nmol/kg daily, 3 weeks",274 ± 14 % Vehicle
same,API-Treated Epidermal Thickness (% Vehicle),"Rhino mice; topical API dose 0.25 nmol/kg daily, 3 weeks",293 ± 8 % Vehicle
"C=C1[C@H](O)CC(=C/C=C2\CCC[C@]3(C)[C@@H]([C@H](C)CCC[C@H](C)O)CC[C@@H]23)C[C@H]1O [NEL, 2-methylene-(20R,25S)-19,26-dinor-1α,25-dihydroxyvitamin D3]","epidermal thickness, dose dependence (in words)","Rhino mice; 7.5 and 25 nmole/kgBW/day topical, 3 weeks, 70 vol. % ethanol/30 vol. % propylene glycol",dose-dependent increase in epidermal thickness
same,API-Treated Epidermal Thickness (% Vehicle),"Rhino mice; topical API dose 7.5 nmol/kg daily, 3 weeks",145 ± 4 % Vehicle
same,API-Treated Epidermal Thickness (% Vehicle),"Rhino mice; topical API dose 25 nmol/kg daily, 3 weeks",189 ± 11 % Vehicle
"C=C1[C@H](O)CC(=C/C=C2\CCC[C@@]3(C)C2CCC3[C@H](C)CC(F)F)C[C@H]1O (stereo partly drawn) [FF-44, 2-methylene-(20R)-23,23-difluoro-1α-hydroxy-19-nor-bishomopregnacalciferol]",epidermal thickness as compared to the vehicle control (in words),Rhino mice; [1],significant increase in epidermal thickness
same,API-Treated Epidermal Thickness (% Vehicle),Rhino mice; [3],206 ± 22 % Vehicle
"C=C1[C@H](O)CC(=C/C=C2\CCC[C@]3(C)C(CC)CCC23)C[C@H]1O (stereo partly drawn) [2MPregna, 2-methylene-19-nor-1α-hydroxy-pregnacalciferol]",epidermal thickness as compared to the vehicle control (in words),Rhino mice; [1],significant increase in epidermal thickness
same,API-Treated Epidermal Thickness (% Vehicle),Rhino mice; [3],183 ± 8 % Vehicle
"C=C1[C@H](O)CC(=C/C=C2\CCC[C@]3(C)[C@@H]([C@H](C)CC)CC[C@@H]23)C[C@H]1O [20R-2MBisP, (20R)-1α-hydroxy-2-methylene-19-nor-bishomopregnacalciferol]",epidermal thickness as compared to the vehicle control (in words),Rhino mice; [1],some increase in epidermal thickness
same,epidermal thickness as compared to the vehicle control (in words),Rhino mice; [2],significant increase in epidermal thickness
same,API-Treated Epidermal Thickness (% Vehicle),Rhino mice; [3],155 ± 7 % Vehicle
same,API-Treated Epidermal Thickness (% Vehicle),Rhino mice; [4],209 ± 13 % Vehicle
"C=C1[C@H](O)CC(=C/C=C2\CCC[C@]3(C)[C@@H]([C@@H](C)CCC)CC[C@@H]23)C[C@H]1O [2MTrisP, 2-methylene-(20S)-19-nor-1α-hydroxy-trishomopregnacalciferol]",epidermal thickness as compared to the vehicle control (in words),Rhino mice; [1],significant increase in epidermal thickness
same,API-Treated Epidermal Thickness (% Vehicle),Rhino mice; [3],221 ± 15 % Vehicle
"C=C1[C@H](O)CC(=C/C=C2\CCC[C@@]3(C)C2CCC3[C@@H](C)CC(F)F)C[C@H]1O (stereo partly drawn) [FF-55, 2-methylene-(20S)-23,23-difluoro-1α-hydroxy-19-nor-bishomopregnancalciferol]",epidermal thickness as compared to the vehicle control (in words),Rhino mice; [1],significant increase in epidermal thickness
same,API-Treated Epidermal Thickness (% Vehicle),Rhino mice; [3],225 ± 9 % Vehicle
"C=C1C(O)CC(=CC=C2CCCC3(C)C2CCC3C(C)C)CC1O (stereo not drawn) [2MP, 1α-hydroxy-2-methylene-19-nor-homopregnacalciferol]",epidermal thickness as compared to the vehicle control (in words),Rhino mice; [1],significant increase in epidermal thickness
same,API-Treated Epidermal Thickness (% Vehicle),Rhino mice; [3],207 ± 8 % Vehicle
"CC(C)C[C@H](C)[C@H]1CC[C@H]2/C(=C/C=C3C[C@@H](O)C(=CCCO)[C@H](O)C3)CCC[C@]12C [HPBS, 2-(3′hydroxypropyl-1′,2′-idene)-19,23,24-trinor-(20S)-1α-hydroxyvitamin D3]",epidermal thickness as compared to the control vehicle (in words),"Rhino mice; 217 nmole/kgBW/day for 3 days (2 mice) or 10 days (4 mice), then 122 nmole/kgBW/day, 3 weeks daily topical, 70 vol. % ethanol/30 vol. % propylene glycol",significant increase in epidermal thickness
same,API-Treated Epidermal Thickness (% Vehicle),"Rhino mice; topical API dose 217 to 122 nmol/kg daily (dose changed on day 10), 3 weeks",189 ± 13 % Vehicle
"C=C1[C@H](O)CC(=C/C=C2\CCC[C@]3(C)C([C@H](C)/C=C/[C@@H](C)C(C)(C)O)CC[C@@H]23)C[C@H]1O (stereo partly drawn) [(24R)2MD2, 2-methylene-19-nor-(24R)-1α,25-dihydroxyvitamin D2]",epidermal thickness as compared to the vehicle control (in words),"Rhino mice; 2.33 nmole/kgBW/day topical, 3 weeks, 70 vol. % ethanol/30 vol. % propylene glycol",significant increase in epidermal thickness
same,API-Treated Epidermal Thickness (% Vehicle),"Rhino mice; topical API dose 2.3 nmol/kg daily, 3 weeks",189 ± 13 % Vehicle
